According to patent US20190307843A1, “SINGLE DOSE METHODS FOR PREVENTING AND TREATING FUNGAL INFECTIONS” (Cidara Therapeutics, Inc., priority 2016, published 2019):
Like-named read-outs stand apart in the source and are kept apart here. Starred links: 1 amine or outer side, 2 acyl side, 3 side chain; linkers in the order of their positions; H or OH if unused. Positions of bridges follow the written chain, without caps; N, C: chain ends. Non-standard residues stand in square brackets, D forms with d. Residues, ends and D or L forms follow the SMILES beside them. *: point of attachment. Orn(4R-OH,5R-OCH2CH2NMe3+) = C[N+](C)(C)CCO[C@@H](N[*:3])[C@H](O)C[C@H](N[*:1])C(=O)[*:2]; pTerphenylCO(4''-OnC5H11) = CCCCCOc1ccc(-c2ccc(-c3ccc(C(=O)*)cc3)cc2)cc1; hTyr(3S-OH,4S-OH) = N[C@H](C(=O)O)[C@H](O)[C@@H](O)c1ccc(O)cc1; Pro(3S-OH,4S-Me) = C[C@H]1CN[C@H](C(=O)O)[C@H]1O; Hyp = O=C(O)[C@@H]1C[C@@H](O)CN1

Experiments:
[1] = tested on: A. fumigatus clinical isolates; experiment: CLSI broth microdilution (M38-A2) MEC, SENTRY clinical isolates; assay type: cell-based, Aspergillus fumigatus; details: 153 A. fumigatus clinical isolates, 2014 and 2015
Source text: (§1) The in vitro activity of CD101 was previously evaluated as part of the SENTRY international surveillance program using CLSI broth microdilution methodology (M38-A2, M27-A3; Pfaller, et al 2017). […] These susceptibility data were then compared graphically to CD101 plasma concentrations from studies in healthy adults, adjusted for plasma protein binding. Nonclinical efficacy in a murine model of Pneumocystis pneumonia were also considered to evaluate CD101 doses for clinical investigation of antifungal prophylaxis.
The in vitro activity of CD101 was evaluated against 153 A. fumigatus clinical isolates collected as part of the 2014 and 2015 JMI international SENTRY surveillance program. Susceptibility was determined by measuring the minimal effective concentration (MEC) values in accordance with CLSI broth microdilution guidelines (M38-A2). In vivo tissue distribution of CD101 in SD rats (N=3/time up to 5 d) after a 5 mg/kg IV CD101 dose. Plasma/tissue concentrations were measured by LC-MS/MS.

[2] = assay type: in vivo, rat; details: all treatment dose and duration
Protocol: The rats were monitored at a frequency appropriate for their clinical condition. Rat weights were recorded at least once daily to ensure animals remained within ethical limits.

C. glabrata = experiment: In vitro susceptibility testing (CLSI M27-A3), C. glabrata; assay type: cell-based, Candida glabrata; details: Nakaseomyces glabratus, 24 h
Protocol: (§2) Ten clinical Candida strains were used for the in vivo treatment studies, including four C. albicans, three C. glabrata, and three C. parapsilosis strains (Table 15). This group was selected to encompass phenotypic variability in susceptibility to triazoles and echinocandins and based on similar fitness in the animal model as defined by the amount of growth in control animals over 24 h. The organisms were maintained, grown, and quantified on Sabouraud's dextrose agar (SDA) plates.
(§3) In vitro susceptibility testing. All isolates were tested in accordance with the standards in CLSI document M27-A3. The MICs were determined visually after 24 h of incubation as the lowest concentration of drug that causes a significant diminution (50%) of growth compared to controls. MICs were determined on three separate occasions in duplicate.

[3] = Protein binding by ultracentrifugation, mouse plasma; assay type: in vitro ADME; details: read-out: percent of bound CD101, mean (protein binding) (converted)
Protocol: Concentrations in plasma ranging from 7 to 60 μg/mL were tested and resulting samples were analyzed by LC-MS/MS.

[4] = Pharmacokinetics in healthy human adults (Phase 1); assay type: in vivo; details: for AUC: human, plasma, free drug, read-out: average 24 h AUC over a 7 day period
Source text: as §1

A. fumigatus AF293 [5] = experiment: Murine model of pulmonary aspergillosis (Example 19), survival; details: for survival time post infection, range / Mean Survival / Median Survival: 1 day pre-infection; for mice surviving to the end of the study: 6/treatment group, 10 days
A. fumigatus AF293 [6] = experiment: Murine model of pulmonary aspergillosis (Example 19), terminal lung burden; assay type: in vivo, Aspergillus fumigatus
Protocol: (§4) A secondary endpoint for the study was terminal lung tissue burden. Immediately following confirmation of death, carcasses were frozen at −20° C. prior to tissue dissection and processing. The frozen carcasses were thawed at room temperature, the lungs removed and placed into pre-weighed bead-beating tubes containing 2 mL of PBS and subjected to mechanical disruption. Organ homogenates were diluted further in PBS and quantitatively cultured for A. fumigatus onto SABC and incubated at 30° C. for 24-48 hours.
2. Lung tissue burden data were analysed using the non-parametric Kruskal-Wallis test and if this was statistically significant all pairwise comparisons were analyzed (Conover-Inman).

[7] = tested on: A. fumigatus strain AF293; experiment: Murine model of pulmonary aspergillosis (Example 13), terminal lung burden; assay type: in vivo, Aspergillus fumigatus
Protocol: as §4, with “temperature and” for “temperature,”, “hours. In addition, a 300 μL aliquot of the undiluted lung tissue homogenate was stored at −80° C. for possible optional assessment of burden by qPCR.” for “hours.”

A. fumigatus AF293 [8] = experiment: Pulmonary aspergillosis, prophylaxis, neutropenic ICR mice (Examples 17, 18), survival; assay type: in vivo, Aspergillus fumigatus
Protocol: Intranasal infection with A. fumigatus AF293 (10^5 CFU/mouse) on Day 0. Prophylaxis CD101 as a single dose (IP; 5, 10, 20 mg/kg) or posaconazole (PO; 2 and 10 mg/kg) 1 day prior to infection. Survival monitored for 10 days.
Intranasal challenge with A. fumigatus AF293 (10^5 CFU/mouse) was initiated on Day 0 and prophylaxis with CD101 as a single dose (IP; 5, 10, 20 mg/kg) or posaconazole (PO; 2 and 10 mg/kg) was started 1 day prior to infection. Survival was monitored for 10 days.

C. albicans = experiment: In vitro susceptibility testing (CLSI M27-A3), C. albicans; assay type: cell-based; details: Candida albicans, 24 h
Protocol: as §2, §3

[9] = CD101 20 mg/kg IP once, 20 mg/kg
[10] = CD101 60 mg/kg IP once, 60 mg/kg

CCCCCOc1ccc(-c2ccc(-c3ccc(C(=O)N[C@H]4C[C@@H](O)[C@@H](OCC[N+](C)(C)C)NC(=O)[C@@H]5[C@@H](O)[C@@H](C)CN5C(=O)[C@H]([C@@H](C)O)NC(=O)[C@H]([C@H](O)[C@@H](O)c5ccc(O)cc5)NC(=O)[C@@H]5C[C@@H](O)CN5C(=O)[C@H]([C@@H](C)O)NC4=O)cc3)cc2)cc1 [CD101] ({pTerphenylCO(4''-OnC5H11)}-[Orn(4R-OH,5R-OCH2CH2NMe3+)]T[Hyp][hTyr(3S-OH,4S-OH)]T[Pro(3S-OH,4S-Me)]; lactam 1-C)
MEC50 [1]: 0.015 µg/mL
MEC90 [1]: 0.015 µg/mL
MEC range [1]: ≤0.0078 to 0.03 µg/mL
tolerability [2]: well tolerated with no adverse events observed
MIC (C. glabrata; C. glabrata 5592): 0.125 µg/mL
MIC (C. glabrata; C. glabrata 10956): 1 µg/mL
MIC (C. glabrata; C. glabrata 35315): 0.5 µg/mL
fraction unbound at 2.5 hr [3]: 0.008
animals completely cleared of CFU burden (Candida albicans SC5314; CD101 SC 1 mg/kg, by 24 hr): 4 of 5
kidney CFU compared with the vehicle control (Candida albicans SC5314; CD101 SC 1, 3, and 10 mg/kg, 24 hr): significant reduction in kidney CFU
CFU clearance (Candida albicans SC5314; CD101 SC 3 or 10 mg/kg, 24 hr): complete CFU clearance
free drug AUC0-168 ([4]; 200 mg dose): 15400 ng·h/mL
free drug AUC0-168 ([4]; 400 mg dose): 30200 ng·h/mL
time plasma concentrations above the MEC90 for A. fumigatus ([4]; both 400 mg and 200 mg): 7 days
AUC ([4]; 200 mg dose): ~2200 ng·h/mL
AUC ([4]; 400 mg dose): ~4300 ng·h/mL
mean unbound plasma concentrations relative to MIC90 for C. albicans ([4]; single dose of 400 mg, Phase 1 subjects): above the MIC90 for C. albicans for seven days
survival time post infection, range (A. fumigatus AF293 [5]; CD101 20 mg/kg IP once): 70 to 240 h
Mean Survival (A. fumigatus AF293 [5]; [9]): 130.4 h
Median Survival (A. fumigatus AF293 [5]; [9]): 74.7 h
mice surviving to the end of the study (A. fumigatus AF293 [5]; CD101 20 mg/kg IP): Two mice survived to the end of the study
survival time post infection, range (A. fumigatus AF293 [5]; CD101 60 mg/kg IP once): 73-240
Mean Survival (A. fumigatus AF293 [5]; [10]): 122.7 h
Median Survival (A. fumigatus AF293 [5]; [10]): 88.7 h
mice surviving to the end of the study (A. fumigatus AF293 [5]; CD101 60 mg/kg IP): A single mouse survived to the end of the study
survival (A. fumigatus AF293 [5]; CD101 20 and 60 mg/kg once one day pre-infection): slight increase in survival
Group Geometric mean (lung burden) (A. fumigatus AF293 [6]; CD101 20 mg/kg IP Day −1): 4.37 × 10^3 CFU/g
Log10 Group Geometric mean (lung burden) (A. fumigatus AF293 [6]; CD101 20 mg/kg IP Day −1): 3.64 CFU/g
Log10 reduction from vehicle control (A. fumigatus AF293 [6]; CD101 20 mg/kg IP Day −1): 0.53 CFU/g
Group Geometric mean (lung burden) (A. fumigatus AF293 [6]; CD101 60 mg/kg IP Day −1): 1.38 × 10^4 CFU/g
Log10 Group Geometric mean (lung burden) (A. fumigatus AF293 [6]; CD101 60 mg/kg IP Day −1): 4.14 CFU/g
Log10 reduction from vehicle control (A. fumigatus AF293 [6]; CD101 60 mg/kg IP Day −1): 0.03 CFU/g
Group Geometric mean (lung burden) ([7]; CD101 5 mg/kg IP Day 0): 5.65 × 10^4 CFU/g
Log10 Group Geometric mean (lung burden) ([7]; CD101 5 mg/kg IP Day 0): 4.75 CFU/g
Log10 reduction from vehicle control ([7]; CD101 5 mg/kg IP Day 0): −0.98 CFU/g
Group Geometric mean (lung burden) ([7]; CD101 5 mg/kg IP Day −1): 3.75 × 10^4 CFU/g
Log10 Group Geometric mean (lung burden) ([7]; CD101 5 mg/kg IP Day −1): 4.57 CFU/g
Log10 reduction from vehicle control ([7]; CD101 5 mg/kg IP Day −1): −0.80 CFU/g
Group Geometric mean (lung burden) ([7]; CD101 5 mg/kg IP Day −3): 5.71 × 10^4 CFU/g
Log10 Group Geometric mean (lung burden) ([7]; CD101 5 mg/kg IP Day −3): 4.76 CFU/g
Log10 reduction from vehicle control ([7]; CD101 5 mg/kg IP Day −3): −0.98 CFU/g
Group Geometric mean (lung burden) ([7]; CD101 5 mg/kg IP Day −5): 6.36 × 10^4 CFU/g
Log10 Group Geometric mean (lung burden) ([7]; CD101 5 mg/kg IP Day −5): 4.80 CFU/g
Log10 reduction from vehicle control ([7]; CD101 5 mg/kg IP Day −5): −1.03 CFU/g
Group Geometric mean (lung burden) ([7]; CD101 10 mg/kg IP Day −1): 5.17 × 10^3 CFU/g
Log10 Group Geometric mean (lung burden) ([7]; CD101 10 mg/kg IP Day −1): 3.71 CFU/g
Log10 reduction from vehicle control ([7]; CD101 10 mg/kg IP Day −1): 0.06 CFU/g
Group Geometric mean (lung burden) ([7]; CD101 10 mg/kg IP Day −3): 7.34 × 10^3 CFU/g
Log10 Group Geometric mean (lung burden) ([7]; CD101 10 mg/kg IP Day −3): 3.87 CFU/g
Log10 reduction from vehicle control ([7]; CD101 10 mg/kg IP Day −3): −0.09 CFU/g
Group Geometric mean (lung burden) ([7]; CD101 10 mg/kg IP Day −5): 3.40 × 10^4 CFU/g
Log10 Group Geometric mean (lung burden) ([7]; CD101 10 mg/kg IP Day −5): 4.53 CFU/g
Log10 reduction from vehicle control ([7]; CD101 10 mg/kg IP Day −5): −0.76 CFU/g
Group Geometric mean (lung burden) ([7]; CD101 20 mg/kg IP Day −1): 1.12 × 10^4 CFU/g
Log10 Group Geometric mean (lung burden) ([7]; CD101 20 mg/kg IP Day −1): 4.05 CFU/g
Log10 reduction from vehicle control ([7]; CD101 20 mg/kg IP Day −1): −0.28 CFU/g
Group Geometric mean (lung burden) ([7]; CD101 20 mg/kg IP Day −3): 4.92 × 10^4 CFU/g
Log10 Group Geometric mean (lung burden) ([7]; CD101 20 mg/kg IP Day −3): 4.69 CFU/g
Log10 reduction from vehicle control ([7]; CD101 20 mg/kg IP Day −3): −0.92 CFU/g
Group Geometric mean (lung burden) ([7]; CD101 20 mg/kg IP Day −5): 8.35 × 10^3 CFU/g
Log10 Group Geometric mean (lung burden) ([7]; CD101 20 mg/kg IP Day −5): 3.92 CFU/g
Log10 reduction from vehicle control ([7]; CD101 20 mg/kg IP Day −5): −0.15 CFU/g
survival rate (A. fumigatus AF293 [8]; CD101 20 mg/kg IP single dose 1 day prior to infection, 10 days): 30%
survival (A. fumigatus AF293 [8]; single CD101 dose (IP; 5, 10, 20 mg/kg) one day prior to infection): dose-dependent increase in survival rate
MIC (C. albicans; C. albicans 98-17): 0.06 µg/mL
MIC (C. albicans; C. albicans 98-210): 0.03 µg/mL
MIC (C. albicans; C. albicans 580): 0.06 µg/mL
MIC (C. albicans; C. albicans K-1, 50% growth diminution): 0.06 µg/mL
